Data as given in patent US20090137617A1, “USE OF HAPTOGLOBIN GENOTYPING IN DIAGNOSIS AND TREATMENT OF CARDIOVASCULAR DISEASE” (priority 2007, published 2009).
Like-named read-outs stand apart in the source and are kept apart here.

Key:
[1] = per 1 mg, according to the National Formulary, cited from earlier work
[2] = test system: cultured endothelial cells; details: vitamin E added to the cellular preparation; cited from earlier work
[3] = animal studies; cited from earlier work
[4] = test system: DM individuals with the Hp 2-2 genotype; assay: ICARE study: randomized placebo-controlled trial of vitamin E, cardiovascular events (MI, stroke, CVD death); assay type: in vivo, human
Excerpt: The study protocol of the ICARE study involves the following: participants were drawn from 47 primary health clinics of the […] Health Services in the northern sector of Israel. […] These Hp 2-2 individuals were randomly assigned to treatment with either vitamin E or placebo. The major study outcomes (MI, stroke, CVD death) were identified prospectively in this population over an 18 month period. A preplanned secondary analysis of ICARE was to assess the ability of vitamin E therapy to influence outcomes in those ICARE participants who were also taking statins. Statin use as prospectively defined in ICARE was based on the use of statins by the participant in at least eight of the twelve months preceding enrollment of the participant in the study. The decision to use statins for a particular participant was under the discretion of the patient's primary care physician and was in no way influenced by the patient's participation in the ICARE study […] However, only about half of the Hp 2-2 DM participants in ICARE received statin therapy. […] Of the 801 Hp 2-2 individuals taking […] cohort, 386 were randomized to vitamin E and 415 to placebo. There was no significant difference in the baseline characteristics, concurrent medications, or diabetes characteristics between those individuals taking statins who were randomized to placebo or vitamin E.

[5] = double-blind protocols and other large studies, even at high doses; cited from earlier work

In the case of `CC(=O)Oc1c(C)c(C)c2c(c1C)CC[C@@](C)(CCC[C@H](C)CCC[C@H](C)CCCC(C)C)O2` (racemic) [dl-alpha-tocopheryl acetate], the “specific activity (IU per milligram)” value ([1]; listed as all-rac-α-tocopherol acetate) is given as 1.00 IU.
In the case of `CC(=O)Oc1c(C)c(C)c2c(c1C)CC[C@@](C)(CCC[C@H](C)CCC[C@H](C)CCCC(C)C)O2` [d-alpha-tocopheryl acetate], the “specific activity (IU per milligram)” value ([1]; listed as RRR-.alpha-tocopherol acetate) is given as 1.36 IU.
In the case of `Cc1c(C)c2c(c(C)c1O)CCC(C)(CCCC(C)CCCC(C)CCCC(C)C)O2` (racemic) [dl-alpha-tocopherol], the “specific activity (IU per milligram)” value [1] is given as 1.10 IU.
For alpha-tocopherol [vitamin E], the “oxidative modification of LDL” value [2] is listed as “totally inhibited”, the carcinogenicity / teratogenicity [3] is listed as “not carcinogenic or teratogenic” and the “event rate (MI, stroke, CVD death)” value ([4]; Hp 2-2 DM individuals taking statins (at least eight of the twelve months preceding enrollment), randomized to vitamin E, 18 month period) is listed as 1.3%. For the same compound, the “hazard ratio [HR] vs placebo” value ([4]; Hp 2-2 DM individuals taking statins, vitamin E vs placebo, 95% CI 0.15-0.83, p=0.017 by log-rank) was 0.31, the “reduction in CVD events” value ([4]; all Hp 2-2 DM participants in ICARE, vitamin E vs placebo) was 50% and the “event rate (MI, stroke, CVD death)” value ([4]; statin use widened to at least one of the twelve months preceding enrollment, p=0.013 vs placebo) was 1.7%. For the same compound, the side effects [5] was “few side effects”.
For `Cc1c(C)c2c(c(C)c1O)CC[C@@](C)(CCC[C@H](C)CCC[C@H](C)CCCC(C)C)O2` [d-alpha-tocopherol], the “specific activity (IU per milligram)” value [1] is listed as 1.49 IU.
